Several values for one entry are separate records, joined by “and”; a condition that tells them apart may be missing. Equal entries are not always repeated.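 Where inhibition never reached the appropriate level, the endpoint shown equals the highest concentration tested. Otherwise, values were interpolated linearly from a five-concentration, 48-hour dose response in 96-well plates. GI50 is the concentration that inhibits growth by half. TGI: total growth inhibition.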
Columns and labels:
Test in all cases: NCI anticancer screen, dose series, 48 h
HS 578T breast = test system: HS 578T breast
SR leukemia = test system: SR leukemia
SNB-19 CNS = test system: SNB-19 CNS
UACC-257 melanoma = test system: UACC-257 melanoma
CAKI-1 renal = test system: CAKI-1 renal
SK-OV-3 ovarian = test system: SK-OV-3 ovarian
NCI-H460 lung = test system: NCI-H460 lung
MOLT-4 leukemia = test system: MOLT-4 leukemia
SF-268 CNS = test system: SF-268 CNS
SK-MEL-5 melanoma = test system: SK-MEL-5 melanoma
SF-295 CNS = test system: SF-295 CNS
NCI-H226 lung = test system: NCI-H226 lung
LOX IMVI melanoma = test system: LOX IMVI melanoma
MALME-3M melanoma = test system: MALME-3M melanoma
COLO 205 colon = test system: COLO 205 colon
NCI-H23 lung = test system: NCI-H23 lung
MDA-MB-468 breast = test system: MDA-MB-468 breast
IGROV1 ovarian = test system: IGROV1 ovarian
KM12 colon = test system: KM12 colon
TK-10 renal = test system: TK-10 renal
MDA-MB-435 = test system: MDA-MB-435
OVCAR-4 ovarian = test system: OVCAR-4 ovarian
SK-MEL-28 melanoma = test system: SK-MEL-28 melanoma
SN12C renal = test system: SN12C renal
MDA-MB-231 breast = test system: MDA-MB-231 breast
M14 melanoma = test system: M14 melanoma

O=c1oc2ccc(-c3ccc(F)cc3F)cc2c(=O)n1-c1ccc(Cl)c(C(F)(F)F)c1
GI50 (HS 578T breast): 2.6 µM
TGI (HS 578T breast): 8.26 µM
GI50 (SR leukemia): 1.79 µM
TGI (SR leukemia): 5.54 µM
GI50 (SNB-19 CNS): 3.28 µM
TGI (SNB-19 CNS): 13.4 µM
GI50 (UACC-257 melanoma): 3.41 µM
TGI (UACC-257 melanoma): 14.4 µM
GI50 (CAKI-1 renal): 2.29 µM
TGI (CAKI-1 renal): 8.98 µM
GI50 (SK-OV-3 ovarian): 2.3 µM
TGI (SK-OV-3 ovarian): 6.3 µM
GI50 (NCI-H460 lung): 3.27 µM
TGI (NCI-H460 lung): 11.2 µM
GI50 (MOLT-4 leukemia): 2.85 µM
TGI (MOLT-4 leukemia): 15 µM
GI50 (SF-268 CNS): 3.39 µM
TGI (SF-268 CNS): 11.9 µM
GI50 (SK-MEL-5 melanoma): 1.96 µM
TGI (SK-MEL-5 melanoma): 4.04 µM
GI50 (SF-295 CNS): 7.02 µM
TGI (SF-295 CNS): 20.5 µM
GI50 (NCI-H226 lung): 2.11 µM
TGI (NCI-H226 lung): 12.5 µM
GI50 (LOX IMVI melanoma): 3.9 µM
TGI (LOX IMVI melanoma): 13.9 µM
GI50 (MALME-3M melanoma): 2.62 µM
TGI (MALME-3M melanoma): 7.28 µM
GI50 (COLO 205 colon): 16.5 µM
TGI (COLO 205 colon): 30.9 µM
GI50 (NCI-H23 lung): 2.47 µM
TGI (NCI-H23 lung): 8.59 µM
GI50 (MDA-MB-468 breast): 2.4 µM and 2.82 µM
TGI (MDA-MB-468 breast): 6.08 µM and 7.81 µM
GI50 (IGROV1 ovarian): 4.42 µM
TGI (IGROV1 ovarian): 15.8 µM
GI50 (KM12 colon): 3.86 µM
TGI (KM12 colon): 14.8 µM
GI50 (TK-10 renal): 3.98 µM
TGI (TK-10 renal): 11.7 µM
GI50 (MDA-MB-435): 3.49 µM
TGI (MDA-MB-435): 12.6 µM
GI50 (OVCAR-4 ovarian): 4.19 µM
TGI (OVCAR-4 ovarian): 16.7 µM
GI50 (SK-MEL-28 melanoma): 4.3 µM
TGI (SK-MEL-28 melanoma): 15.9 µM
GI50 (SN12C renal): 2.89 µM
TGI (SN12C renal): 9.46 µM
GI50 (MDA-MB-231 breast): 2.35 µM
TGI (MDA-MB-231 breast): 6.97 µM
GI50 (M14 melanoma): 0.0652 µM
TGI (M14 melanoma): 3.29 µM

From PubChem BioAssay (NCI)
